A word on the melting point: it is the temperature, or range, at which the solid turns liquid. A word on the ED50: it is the dose at which the effect has come halfway, by size or by number of responders.

This note sets out measurements from patent publication US20020037885A1, “Therapeutic compounds” (priority 1999, published 2002).

Where only a bound is given, the exact number is not on record here.

System in the first series: not given
Assay: not given
Conditions: not given
In the case of `C=CCC(N)c1ccccc1-c1nc2ccccc2o1.O=C(O)/C=C/C(=O)O` (stereo not shown), the melting point lay within 202 to 204 °C. Turning to `c1ccc(CNC(Cc2ccccc2)c2ccccc2-c2noc3ccccc23)cc1` (stereo not drawn) [Example 16(2), α-[2-(1,2-benzisoxazol-3-yl)phenyl]-N-benzyl-benzeneethanamine], the melting point came out at 153 °C. The compound `C=CCC(N)c1ccc(-c2noc3ccccc23)s1.O=C(O)/C=C/C(=O)O` (stereo not shown) came in with a melting point of 182 to 189 °C. `C#CCC(N)c1ccccc1-c1noc2ccccc12.O=C(O)/C=C/C(=O)O` (stereo not shown) [Example 13(4)] had a melting point of 161 to 169 °C. Same read-out and setting: in the case of `C=CCC(N)c1ccccc1-c1ccon1.O=C(O)/C=C/C(=O)O` (stereo not shown) it was 150 to 175 °C; in that of `C=CCC(N)c1ccccc1-c1cc(C)on1.O=C(O)/C=C\C(=O)O` (stereo not shown), 130 to 138 °C; in that of `C=CCC(N)c1ccccc1-c1coc2ccccc12.Cl` (stereo not shown), 160 to 165 °C. As for `C=CCC(N)c1ccccc1-c1cccs1.O=C(O)/C=C/C(=O)O` (stereo not shown), the melting point is 196 to 197 °C. The same measure, in the same setting: in the case of `C=CCC(N)c1ccccc1-c1ccoc1.O=C(O)/C=C/C(=O)O` (stereo not shown) it was 183 to 185 °C; in that of `C=CCC(N)c1ccccc1-c1cc(Cl)ccc1C.O=C(O)/C=C/C(=O)O` (stereo not shown), 179 to 184 °C. The same measure, in the same setting: then `C=CCC(N)c1ccccc1-c1noc2cc(C(F)(F)F)ccc12.O=C(O)/C=C/C(=O)O` (stereo not shown), with 179 to 186 °C. As for `C=CC[C@@H](N)c1cc(F)ccc1-c1noc2ccccc12.O=C(O)/C=C/C(=O)O`, the melting point lay within 171 to 173 °C.

`C=CCC(N)c1ccccc1-c1ccccc1F.O=C(O)/C=C/C(=O)O` (stereo not shown) displayed a melting point of 225 to 226 °C. In the case of `CCCC(N)c1ccccc1-c1noc2ccccc12.Cl` (stereo not shown), the melting point was in the range of 118 to 126 °C. Compound `C=CCNCc1ccccc1-c1noc2ccccc12.Cl` returned a melting point of 176 °C. Still for that read-out and setting: in the case of `C=CCC(N)c1ccccc1-c1cccc(Cl)c1C.O=C(O)/C=C/C(=O)O` (stereo not shown) it was 192 to 196 °C. Take `C=CCC(N)c1ccccc1-c1noc2cc(F)ccc12.Cl` (stereo not shown): the melting point lay in the range of 192 to 195 °C.

For the compound `C=CCC(N)c1ccccc1-c1cc2cc(Cl)ccc2o1.Cl` (stereo not shown), the melting point was in the range of 226 to 228 °C. With `Cl.NCc1ccccc1-c1noc2ccccc12`, the melting point amounted to 233 °C. In turn, `C=CCC(N)c1cc(-c2noc3ccccc23)cs1.O=C(O)/C=C/C(=O)O` (stereo not shown) yielded a melting point of 161 to 164 °C. As for `C=CCC(N)c1ccccc1-c1cc(F)ccc1C.O=C(O)/C=C/C(=O)O` (stereo not shown), the melting point is 190 to 192 °C. `C=CCC(N)c1ccccc1-c1cc(-c2ccccc2)on1.O=C(O)/C=C/C(=O)O` (stereo not shown) returned a melting point of 165 to 180 °C. `C=CCC(N)c1ccccc1Cc1ccccc1OC.O=C(O)/C=C/C(=O)O` (stereo not shown) registered a melting point of 172 to 174 °C.

As to `CC(C)CC(N)c1ccccc1-c1noc2cc(F)ccc12.O=C(O)/C=C/C(=O)O` (stereo not shown), the melting point lay within 174 to 184 °C. With `C=CCC(N)c1ccccc1-c1ccc(C)cc1F.O=C(O)/C=C/C(=O)O` (stereo not shown), the melting point fell in the range of 209 to 211 °C. The compound `C=CCC(N)c1ccccc1-c1ccc(-c2ccccc2)c(F)c1.O=C(O)/C=C/C(=O)O` (stereo not shown) displayed a melting point of 205 to 208 °C. On to `c1ccc(C2CCCN2)c(-c2noc3ccccc23)c1` (stereo not shown) [Example 36(12), 2-[2-(1,2-benzisoxazol-3-yl)-phenyl]-pyrrolidine], for which the melting point lay in the range of 253 to 261 °C. Still for that read-out and setting: then `C=CC[C@@H](N)c1ccccc1-c1noc2cc(F)ccc12.Cl`, with 148 to 150 °C; and `C=CCC(N)c1ccccc1-c1ccc(Cl)c(F)c1.O=C(O)/C=C/C(=O)O` (stereo not shown), with 192 to 194 °C. Same read-out and setting: in the case of `C=CC[C@H](N)c1ccccc1-c1noc2cc(F)ccc12.Cl` it was 166 to 174 °C; in that of `C=CCC(N)c1ccccc1Cc1cccc(OC)c1.O=C(O)/C=C/C(=O)O` (stereo not shown), 163 to 165 °C; in that of `c1ccc(-c2noc3ccccc23)c(CNCc2ccccc2-c2noc3ccccc23)c1` [Example 22, 2-(1,2-Benzisoxazol-3-yl)-N-[[2-(1,2-benzisoxazol-3-yl)phenyl]methyl]-benzenemethanamine], 138 °C. On to `CCCCC(N)c1ccccc1-c1noc2cc(Cl)ccc12.Cl` (stereo not shown), for which the melting point lay in the range of 209 to 214 °C. In the case of `C=CCC(N)c1ccccc1-c1csc2ccccc12.O=C(O)/C=C\C(=O)O` (stereo not shown), the melting point was 185 to 187 °C. Same read-out and setting: in the case of `CN(C)Cc1ccccc1-c1noc2ccccc12.Cl` it was 190 °C. On the same count and under the same terms, in the case of `CNC(Cc1ccccc1)c1ccccc1-c1noc2ccccc12.Cl` (stereo not shown) it was 175 °C. `COc1ccccc1CNCc1ccccc1-c1noc2ccccc12.O=C(O)C(=O)O`: the melting point was 184 °C.

The compound `C=CCC(N)c1ccccc1N1C=CC=NC1.O=C(O)/C=C/C(=O)O` (stereo not shown) registered a melting point of 75 to 77 °C. The compound `C=CCC(N)c1cccc(-c2noc3ccccc23)c1.O=C(O)/C=C\C(=O)O` (stereo not shown) came in with a melting point of 148 to 150 °C. For `C=CCC(N)c1ccccc1-c1ccccc1Cl.O=C(O)/C=C/C(=O)O` (stereo not shown), the melting point was in the range of 189 to 191 °C. Turning to `C=CCC(N)c1ccccc1-c1cnc2ccccc2c1.O=C(O)/C=C/C(=O)O` (stereo not shown), the melting point is 194 to 197 °C.

Take `C=CCC(N)c1cc(F)ccc1-c1noc2ccccc12.O=C(O)/C=C/C(=O)O` (stereo not shown): the melting point lay in the range of 176 to 180 °C. As to `C=CCC(N)c1ccccc1-c1ccc(C)cc1.O=C(O)/C=C/C(=O)O` (stereo not shown), the melting point lay within 198 to 200 °C. The same measure, in the same setting: in the case of `C=CC[C@@H](N)c1ccc(F)cc1-c1noc2ccccc12.O=C(O)/C=C/C(=O)O` it was 104 to 109 °C. On to `C#CCC(N)c1ccccc1-c1noc2cc(Cl)ccc12.Cl` (stereo not shown), for which the melting point was in the range of 209 to 214 °C.

Regarding `C#CCC(N)c1ccccc1-c1noc2ccccc12.O=C(O)C(=O)O` (stereo not shown), the melting point was over 250 °C. In the case of `C=CCC(N)c1ccccc1-c1ccc(F)cc1.O=C(O)/C=C/C(=O)O` (stereo not shown), the melting point was 201 to 203 °C. Same read-out and setting: then `Cl.Cl.c1cncc(CNCc2ccccc2-c2noc3ccccc23)c1`, with 154 °C; and `C1=CCC(c2ccccc2-c2noc3ccccc23)NC1` (stereo not shown) [Example 36(11), 2-[2-(1,2-benzisoxazol-3-yl)-phenyl]-1,2,3,6-tetrahydropyridine], with 242 to 268 °C; and `C=CCC(N)c1cc(F)ccc1-c1noc2ccc(F)cc12.O=C(O)/C=C/C(=O)O` (stereo not shown), with 168 to 173 °C. Compound `C=CCC(N)c1ccccc1-c1cc2cc(F)ccc2s1.Cl` (stereo not shown) displayed a melting point of 104 to 106 °C.

As to `CNCc1ccccc1-c1noc2ccccc12.Cl`, the melting point was determined as 230 °C. Same read-out and setting: then `C#CCC(N)c1ccccc1-c1noc2ccccc12.O=C(O)/C=C/C(=O)O` (stereo not shown) [Example 12(5)], with 165 to 170 °C. Compound `CC(C)=CCC(N)c1ccccc1-c1noc2ccccc12.O=C(O)/C=C\C(=O)O` (stereo not shown) showed a melting point of 132 to 135 °C. Same read-out and setting: then `C=CCC(N)c1ccc(F)cc1-c1noc2ccc(F)cc12.O=C(O)/C=C/C(=O)O` (stereo not shown), with 164 to 169 °C.

For the compound `NC(CCCC(F)(F)F)c1ccccc1-c1noc2ccccc12.O=C(O)/C=C/C(=O)O` (stereo not shown), the melting point lay in the range of 203 to 210 °C.

For the compound `C=C(C)CC(N)c1ccccc1-c1noc2ccccc12.Cl` (stereo not shown), the melting point was 170 to 200 °C. Take `C=CCC(N)C1(c2noc3ccccc23)CC=CS1.O=C(O)/C=C/C(=O)O` (stereo not shown): the melting point was 173 to 178 °C. Regarding `C=CCC(N)c1ccccc1Cc1ccccc1.O=C(O)/C=C/C(=O)O` (stereo not shown), the melting point lay in the range of 181 to 183 °C. The compound `C=CCC(N)c1ccccc1-c1ccc(C)c(F)c1.O=C(O)/C=C/C(=O)O` (stereo not shown) gave a melting point of 194 to 196 °C. On to `C=CCC(N)c1oc2ccccc2c1-c1noc2ccccc12.O=C(O)/C=C/C(=O)O` (stereo not shown), for which the melting point was in the range of 210 to 216 °C. `C=CCC(N)c1cc(F)ccc1-c1noc2cc(Cl)ccc12.O=C(O)/C=C\C(=O)O` (stereo not shown): the melting point is 162 to 164 °C.

The compound `C=CCC(N)c1cc(Cl)ccc1-c1noc2ccccc12.O=C(O)/C=C/C(=O)O` (stereo not shown) gave a melting point of 174 to 177 °C. As for `C=CCC(N)C1(c2noc3ccccc23)CC=CO1.O=C(O)/C=C/C(=O)O` (stereo not shown), the melting point lay in the range of 158 to 165 °C. In the case of `C=CCC(N)c1ccccc1-c1ccccc1OC.Cl` (stereo not shown), the melting point lay within 236 to 240 °C. In turn, `C=CCC(N)c1ccccc1-c1cc2ccccc2o1.Cl` (stereo not shown) had a melting point of 225 to 227 °C.

Regarding `C=CCC(N)c1ccccc1-c1cc2ccccc2s1.Cl` (stereo not shown), the melting point lay in the range of 106 to 108 °C. In turn, `C=CCC(N)c1ccccc1-c1nc2ccccc2s1.Cl` (stereo not shown) came in with a melting point of 240 to 242 °C. Compound `C=CC[C@H](N)c1ccc(F)cc1-c1noc2ccccc12.O=C(O)/C=C/C(=O)O` had a melting point of 97 to 108 °C.

For the next series, the system named is marble burying behaviour in mice. Kind of series: Mouse Marble Burying Assay (BUR). It is filed as in vivo. Conditions: Mus musculus; sc; effective dose causing 50% inhibition of burying compared to control mice; read-out: BUR ED50 (SC). As to the method:
This assay was carried out essentially according to the procedure described by Treit et al. (1981) Pharmacol Biochem Behav; 15; 619-626.
The results are presented as BUR ED50 (sc). This is the effective dose causing 50% inhibition of burying compared to control mice.
With `Cl.NC(c1ccccc1-c1noc2ccccc12)C1CC=CCC1` (stereo not drawn) [Example 37, 2-(1,2-Benzisoxazol-3-yl)-α-(3-cyclohexenyl)-benzenemethanamine Hydrochloride], the ED50 is 3.1 mg/kg.

Still in this series, the particulars now being: Table 2.
As for `C=CCC(N)c1ccccc1-c1cccc2ccccc12.Cl` (stereo not drawn) [15 (6), 2-(napth-1-yl)-α-2-propenyl-benzenemethanamine hydrochloride], the “BUR sc ED50(mg/kg)” value is 11.6 mg/kg.

Still in this series, the particulars now being: effective dose causing 50% inhibition of burying compared to control mice.
Regarding `C#CCC(N)c1ccccc1-c1noc2cc(Cl)ccc12.C#CCC(N)c1ccccc1-c1noc2cc(Cl)ccc12.O=C(O)/C=C/C(=O)O` (single isomer, unassigned; (-)) [13(5), (−)-2-(6-chloro-1,2-benzisoxazol-3-yl)-α-2-propynyl-benzenemethanamine (E)-butenedioate (2:1 salt)], the BUR ED50 (SC) is 0.4 mg/kg. As to `Cl.NC(Cc1ccc(F)cc1)c1ccccc1-c1noc2ccccc12` (stereo not drawn) [Example 36, 2-(1,2-Benzisoxazol-3-yl)-α-(4-fluorobenzyl)-benzenemethanamine Hydrochloride.], the BUR ED50 (SC) is 2.8 mg/kg.
